Reference: paper PMC10935581 (Biochemistry, 2023)
“Also recorded” adds a separate entry of the source. Where two headings read alike, the source gives them in different places.

Legend:
[1] = molecular target: T1, NAMPT (Homo sapiens, UniProt P43490); details: cited from earlier work
[2] = molecular target: T1, NAMPT; assay: Coupled primary NAMPT enzyme assay; format: biochemical; details: for HTS outcome (increase of NAMPT enzyme activity): screen of ChemDiv and Microsource Spectrum libraries
[3] = molecular target: T1, NAMPT; assay: Fluorescence polarization binding assay
[4] = molecular target: T1, NAMPT; assay: Orthogonal NAMPT endpoint assay; format: biochemical
[5] = system: THP-1 human leukemic monocyte cell line; assay: Cellular NAD+ by miniaturized NADglo assay; format: cell-based; details: 24 h incubation
[6] = molecular target: T1, NAMPT; assay: Uncoupled ATPase reaction of NAMPT; format: biochemical; details: absence of PRPP

T1 sequence (P43490 whole entry): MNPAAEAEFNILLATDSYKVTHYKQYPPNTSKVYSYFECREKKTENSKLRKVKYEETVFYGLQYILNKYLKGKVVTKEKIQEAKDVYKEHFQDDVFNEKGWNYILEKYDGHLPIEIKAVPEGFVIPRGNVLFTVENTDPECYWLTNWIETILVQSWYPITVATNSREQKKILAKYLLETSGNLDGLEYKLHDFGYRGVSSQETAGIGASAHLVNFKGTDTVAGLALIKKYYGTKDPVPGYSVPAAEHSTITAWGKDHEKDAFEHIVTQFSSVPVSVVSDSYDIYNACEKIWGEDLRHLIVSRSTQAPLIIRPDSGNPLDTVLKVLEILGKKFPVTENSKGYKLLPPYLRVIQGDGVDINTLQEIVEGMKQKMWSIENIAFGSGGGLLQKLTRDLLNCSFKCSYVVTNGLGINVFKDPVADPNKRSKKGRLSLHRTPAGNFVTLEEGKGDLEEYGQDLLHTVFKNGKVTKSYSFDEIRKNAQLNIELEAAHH

SMILES: Nc1ncnc2c1ncn2[C@@H]1O[C@H](COP(=O)(O)OP(=O)(O)OP(=O)(O)O)[C@@H](O)[C@H]1O [ATP]
- Km ([1]; read-out: KM(ATP)): 7 mM

SMILES: NC(=O)c1ccc[n+]([C@@H]2O[C@H](COP(=O)([O-])OP(=O)(O)OC[C@H]3O[C@@H](n4cnc5c(N)ncnc54)[C@H](O)[C@@H]3O)[C@@H](O)[C@H]2O)c1 [NAD^+, Nicotinamide adenine dinucleotide]
- Ki ([1]; read-out: KI for inhibition of NAMPT activity): 2 µM

SMILES: NC(=O)c1cccnc1 [NAM, nicotinamide]
- Km ([2]; read-out: Apparent KM for NAM, no activator): ~0.000145 mM

SMILES: COc1cccc(NCC(F)Cn2c3ccc(Br)cc3c3cc(Br)ccc32)c1 (stereo not drawn) [P7C3-A20]
- Binding to NAMPT (in words) [3]: did not show any NAMPT binding activity

SMILES: O=C(NCc1ccncc1)Nc1ccc(S(=O)(=O)N2CC3CCC(C2)O3)cc1 [SBI-0797812]
- Effect on ATP dependence of NAMPT (KM(ATP), KI(ATP)) [4]: significant left-shift in KM(ATP); also recorded: dramatic left-shift in both KM and KI for ATP
- NAMPT activity relative to vehicle control ([4]; ATP 4 mM, NAM 3 or 300 μM, PRPP 40 μM): Inhibition of NAMPT activity
- NAMPT activation ([4]; Fig. 2D): confirmed to activate NAMPT
- KI(ATP) in presence of activator ([4]; left-shifted): < 1000 µM
- Effect on cellular NAD+ (in words) [5]: reducing cellular levels of NAD^+; also recorded: inhibited both NAMPT activity and NAD^+ formation in THP-1 cells

SMILES: C/C=C(/C(=C/C)c1ccc(O)cc1)c1ccc(O)cc1 [dienestrol]
- HTS outcome (increase of NAMPT enzyme activity) [2]: validated hits

SMILES: O=c1c(-c2ccc(O)cc2)coc2cc(O)cc(O)c12 [genestein]
- HTS outcome (increase of NAMPT enzyme activity) [2]: validated hits

SMILES: COc1ccc(CC(=O)c2ccc(O)cc2O)cc1 [onenetin]
- HTS outcome (increase of NAMPT enzyme activity) [2]: validated hits

SMILES: O=c1c(O)c(-c2ccc(O)c(O)c2)oc2cc(O)cc(O)c12 [quercitin]
- NAMPT activation in primary assay ([2]; at ≤ 40 μM): devoid of activity

SMILES: C[C@@H]1O[C@@H](Oc2c(-c3ccc(O)c(O)c3)oc3cc(O)cc(O)c3c2=O)[C@H](O)[C@H](O)[C@H]1O [quercitrin]
- Maximal activation of NAMPT relative to vehicle control [2]: high activation at higher concentrations
- Effect on KM(ATP) ([2]; rate increased): without significant effect
- HTS outcome (increase of NAMPT enzyme activity) [2]: validated hits
- Binding to NAMPT (in words) [3]: weak binding NAMPT ligand
- Kd [3]: 16 µM
- Effect on uncoupled ATP consumption [6]: increase uncoupled ATP consumption
- Effect on cellular NAD+ (in words) [5]: inactive in cells
- Effect on cellular NAD+ (in words) ([5]; listed as Quercitrin): inactive
